Data: US20240368135A1 (VERTEX PHARMACEUTICALS INCORPORATED, priority 2021, published 2024)
Where two headings read alike, the source gives them in different places.

Biological target: human NaV 1.8 (Homo sapiens, UniProt Q9Y5Y9)
Test: E-VIPR assay detecting and measuring NaV inhibition properties
Format: cell-based
Conditions: HEK cells expressing truncated human NaV 1.8
Excerpt: Sodium ion channels are voltage-dependent proteins that can be activated by inducing membrane voltage changes by applying electric fields. The electrical stimulation instrument and methods of use, referred to as E-VIPR, are described in International Publication No. WO 2002/008748 A3 and C.-J. Huang et al. Characterization of voltage-gated sodium channel blockers by electrical stimulation and fluorescence detection of membrane potential, 24 Nature Biotech. 439-46 (2006), both of which are incorporated by reference in their entirety. The instrument comprises a microtiter plate handler, an optical system for exciting the coumarin dye while simultaneously recording the coumarin and oxonol emissions, a waveform generator, a current- or voltage-controlled amplifier, and parallel electrode pairs that are inserted into assay plate wells. Under integrated computer control, this instrument passes user-programmed electrical stimulus protocols to cells within the wells of the microtiter plate.
16-20 hours prior to running the assay on E-VIPR, HEK cells expressing a truncated form of human NaV 1.8 with full channel activity were seeded into microtiter 384-well plates, pre-coated with matrigel, at a density of 25,000 cells per well. 2.5-5% KIR2.1 Bacmam virus was added to the final cell suspension before seeding into cell plates. HEK cells were grown in Dulbecco's Modified Eagle's Medium (DMEM) supplemented with 10% FBS (Fetal Bovine Serum, qualified; Sigma #F4135), 1% NEAA (Non-Essential Amino Acids, Gibco #11140), 1% HEPES (Gibco #15630), 1% Pen-Strep (Penicillin-Streptomycin; Gibco #15140) and 5 μg/ml Blasticidin (Gibco #R210-01). Cells were expanded in vented cap cell culture flasks, with 90-95% humidity and 5% CO2.
Human Serum (HS, Millipore #S1P1-01KL, or Sigma SLBR5469V and SLBR5470V as a 50%/50% mixture, for 25% assay final concentration) • Bath 1 Buffer: • Sodium Chloride 160 mM (9.35 g/L), Potassium Chloride, 4.5 mM (0.335 g/L), Glucose 10 mM (1.8 g/L), Magnesium Chloride (Anhydrous) 1 mM (0.095 g/L), Calcium Chloride 2 mM (0.222 g/L), HEPES 10 mM (2.38 g/L) in water. • Na/TMA C1 Bath 1 Buffer: • Sodium Chloride 96 mM (5.61 g/L), Potassium Chloride 4.5 mM (0.335 g/L), Tetramethylammonium (TMA)-Cl 64 mM (7.01 g/L), Glucose 10 mM (1.8 g/L), Magnesium Chloride (Anhydrous) 1 mM (0.095 g/L), Calcium Chloride 2 mM (0.222 g/L) HEPES 10 mM (2.38 g/L) in water. • Hexyl Dye Solution (2× concentration): • Bath 1 Buffer containing 0.5% P-cyclodextrin (made fresh prior to each use, Sigma #C4767), 8 μM CC2-DMPE and 2 μM DiSBAC6(3). The solution was made by adding 10% Pluronic F127 stock equal to combined volumes of CC2-DMPE and DiSBAC6(3). The order of preparation was first mix Pluronic and CC2-DMPE, then add DiSBAC6(3), then while vortexing add Bath 1/p-Cyclodextrin.
Compound Loading Buffer (2× concentration): Na/TMA C1 Bath1 Buffer containing HS (omitted in experiments run in the absence of human serum (HS)) 50%, VABSC-1 1 mM, BSA 0.2 mg/ml (in Bath-1), KCl 9 mM, DMSO 0.625%.
1) To reach the final concentration in each well, 375 nL of each compound was pre-spotted (in neat DMSO) into polypropylene compound plates at 240× desired final concentration from an intermediate stock concentration of 0.075 mM, in an 11 point dose response, 3-fold dilution, resulting in a top dose of 300 nM final concentration in the cell plate. Vehicle control (neat DMSO), and positive control (an established NaV1.8 inhibitor, 25 μM final in assay in DMSO) were added manually to the outermost columns of each plate respectively. The compound plate was backfilled with 45 μL per well of Compound Loading Buffer resulting in a 240 fold dilution of compound following a 1:1 transfer of compound into the cell plate (see Step 6). Final DMSO concentration for all wells in the assay was 0.625% (0.75% DMSO was supplemented to the Compound Loading Buffer for a final DMSO concentration of 0.625%). […]

[1] = no human serum, read-out: IC50 in the E-VIPR Assay
[2] = in the presence of human serum (compound numbers followed by *), read-out: IC50 in the E-VIPR Assay, performed in the presence of human serum

Sequence of human NaV 1.8 (Q9Y5Y9 126-399 limits assumed): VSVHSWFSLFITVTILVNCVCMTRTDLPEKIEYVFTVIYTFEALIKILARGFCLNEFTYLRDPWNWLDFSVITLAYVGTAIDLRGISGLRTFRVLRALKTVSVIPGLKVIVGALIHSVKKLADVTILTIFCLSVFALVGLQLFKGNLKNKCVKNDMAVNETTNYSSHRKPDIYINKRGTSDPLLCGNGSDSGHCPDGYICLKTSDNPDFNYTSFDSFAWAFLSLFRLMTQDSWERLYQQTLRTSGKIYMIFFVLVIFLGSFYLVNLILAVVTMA
Sequence of human NaV 1.8 (Q9Y5Y9 660-890 limits assumed): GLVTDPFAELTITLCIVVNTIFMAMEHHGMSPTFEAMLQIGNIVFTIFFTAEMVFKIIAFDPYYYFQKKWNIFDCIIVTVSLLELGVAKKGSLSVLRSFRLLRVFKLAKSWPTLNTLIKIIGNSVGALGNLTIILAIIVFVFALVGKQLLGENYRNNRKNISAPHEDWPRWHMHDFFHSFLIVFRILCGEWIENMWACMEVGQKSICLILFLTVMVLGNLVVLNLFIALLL
Sequence of human NaV 1.8 (Q9Y5Y9 1148-1722 limits assumed): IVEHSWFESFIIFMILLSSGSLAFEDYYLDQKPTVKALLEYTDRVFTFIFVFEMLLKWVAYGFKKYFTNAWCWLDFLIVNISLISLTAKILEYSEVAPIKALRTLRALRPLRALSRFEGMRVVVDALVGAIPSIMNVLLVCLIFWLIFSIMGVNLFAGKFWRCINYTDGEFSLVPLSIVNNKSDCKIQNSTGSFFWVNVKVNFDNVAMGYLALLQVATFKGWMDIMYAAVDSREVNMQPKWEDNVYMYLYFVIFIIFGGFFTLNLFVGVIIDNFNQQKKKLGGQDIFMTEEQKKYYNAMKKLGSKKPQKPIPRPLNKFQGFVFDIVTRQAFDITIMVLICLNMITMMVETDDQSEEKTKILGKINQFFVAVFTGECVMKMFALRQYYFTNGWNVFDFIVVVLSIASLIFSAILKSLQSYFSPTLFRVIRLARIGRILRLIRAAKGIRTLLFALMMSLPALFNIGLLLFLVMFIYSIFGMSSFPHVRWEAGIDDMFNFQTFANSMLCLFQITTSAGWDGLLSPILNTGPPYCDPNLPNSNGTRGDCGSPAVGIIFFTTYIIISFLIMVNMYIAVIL

| IC50 [1] [nM] | IC50 [2] [nM] | SMILES |
| --- | --- | --- |
| < 10 |  | COc1c(C2C(C(=O)Nc3ccn4nnnc4c3)OC(C)(C(F)(F)F)C2C)ccc(F)c1C (racemic) [Compound 132, 3-(4-fluoro-2-methoxy-3-methyl-phenyl)-4,5-dimethyl-N-(tetrazolo[1,5-a]pyridin-7-yl)-5-(trifluoromethyl)tetrahydrofuran-2-carboxamide] |
| 100 to 1000 |  | Cc1nn(C(F)F)cc1NC(=O)[C@@H]1O[C@@](C)(C(F)(F)F)[C@@H](C)[C@H]1c1ccc(F)c(F)c1CN1CC(O)C1 (racemic) [Compound 673, rac-(2R,3S,4S,5R)-3-(3,4-difluoro-2-((3-hydroxyazetidin-1-yl)methyl)phenyl)-N-(1-(difluoromethyl)-3-methyl-1H-pyrazol-4-yl)-4,5-dimethyl-5-(trifluoromethyl)tetrahydrofuran-2-carboxamide] |
| < 10 |  | COc1c([C@H]2[C@H](C(=O)Nc3ccnc(C(C)(O)CO)c3)O[C@@](C)(C(F)(F)F)[C@H]2C)ccc(F)c1F (relative stereo) [Compound 3, rel-(2R*,3S*,4S*,5R*)-3-(3,4-difluoro-2-methoxyphenyl)-N-(2-(1,2-dihydroxypropan-2-yl)pyridin-4-yl)-4,5-dimethyl-5-(trifluoromethyl)tetrahydrofuran-2-carboxamide] |
| < 10 |  | CCOc1c([C@H]2[C@H](C(=O)Nc3ccnc([S@@](C)(=O)=NC)c3)O[C@@](C)(C(F)(F)F)[C@H]2C)ccc(F)c1F (relative stereo) [Compound 12, rel-(2R,3S,4S,5R)—N-(2-(N,S-dimethylsulfonimidoyl)pyridin-4-yl)-3-(2-ethoxy-3,4-difluorophenyl)-4,5-dimethyl-5-(trifluoromethyl)tetrahydrofuran-2-carboxamide] |
| 100 to 1000 |  | CCOc1c([C@@H]2[C@@H](C(=O)Nc3ccnc(S(C)(=N)=O)c3)O[C@](C)(C(F)(F)F)[C@@H]2C)ccc(F)c1C (relative stereo) [Compound 124, rel-(2S,3R,4R,5S)-3-(2-ethoxy-4-fluoro-3-methylphenyl)-4,5-dimethyl-N-(2-(S-methylsulfonimidoyl)pyridin-4-yl)-5-(trifluoromethyl)tetrahydrofuran-2-carboxamide] |
| < 10 |  | CCOc1c([C@H]2[C@H](C(=O)Nc3ccnc(S(C)(=N)=O)c3)O[C@@](C)(C(F)(F)F)[C@H]2C)ccc(F)c1C (relative stereo) [Compound 125, rel-(2R,3S,4S,5R)-3-(2-ethoxy-4-fluoro-3-methylphenyl)-4,5-dimethyl-N-(2-(S-methylsulfonimidoyl)pyridin-4-yl)-5-(trifluoromethyl)tetrahydrofuran-2-carboxamide] |
|  | ≥ 1000 | COc1c([C@@H]2[C@@H](C(=O)Nc3cc[n+]([O-])c(C(O)CO)c3)O[C@](C)(C(F)(F)F)[C@@H]2C)ccc(F)c1C (relative stereo) [Compound 138, rel-2-(1,2-dihydroxyethyl)-4-((2S,3R,4R,5S)-3-(4-fluoro-2-methoxy-3-methylphenyl)-4,5-dimethyl-5-(trifluoromethyl)tetrahydrofuran-2-carboxamido)pyridine 1-oxide] |
| 100 to 1000 |  | COc1c([C@@H]2[C@@H](C(=O)Nc3ccnc(S(C)(=N)=O)c3)O[C@](C)(C(F)(F)F)[C@@H]2C)ccc(F)c1C (relative stereo) [Compound 150, rel-(2S,3R,4R,5S)-3-(4-fluoro-2-methoxy-3-methylphenyl)-4,5-dimethyl-N-(2-(S-methylsulfonimidoyl)pyridin-4-yl)-5-(trifluoromethyl)tetrahydrofuran-2-carboxamide] |
| < 10 |  | COc1c([C@H]2[C@H](C(=O)Nc3ccnc(S(C)(=N)=O)c3)O[C@@](C)(C(F)(F)F)[C@H]2C)ccc(F)c1C (relative stereo) [Compound 151, rel-(2R,3S,4S,5R)-3-(4-fluoro-2-methoxy-3-methylphenyl)-4,5-dimethyl-N-(2-(S-methylsulfonimidoyl)pyridin-4-yl)-5-(trifluoromethyl)tetrahydrofuran-2-carboxamide] |
| 10 to 100 |  | COc1c([C@H]2[C@H](C(=O)Nc3cc(O[C@@H]4COC[C@@H]4O)ncn3)O[C@@](C)(C(F)(F)F)[C@H]2C)ccc(F)c1F (relative stereo) [Compound 238, (2R*,3S*,4S*,5R*)-3-(3,4-difluoro-2-methoxyphenyl)-N-(6-((cis-4-hydroxytetrahydrofuran-3-yl)oxy)pyrimidin-4-yl)-4,5-dimethyl-5-(trifluoromethyl)tetrahydrofuran-2-carboxamide] |
| ≥ 1000 |  | COc1c([C@H]2[C@H](C(=O)N[C@@H]3C[C@H]3c3cnn(C)c3)O[C@@](C)(C(F)(F)F)[C@H]2C)ccc(F)c1F (relative stereo) [Compound 266, rel-(2R*,3S*,4S*,5R*)-3-(3,4-difluoro-2-methoxyphenyl)-4,5-dimethyl-N-((1R,2S)-2-(1-methyl-1H-pyrazol-4-yl)cyclopropyl)-5-(trifluoromethyl)tetrahydrofuran-2-carboxamide] |
| < 10 |  | COc1c([C@H]2[C@H](C(=O)N[C@H]3C[C@@H]3c3cnn(C)c3)O[C@@](C)(C(F)(F)F)[C@H]2C)ccc(F)c1F (relative stereo) [Compound 267, rel-(2R*,3S*,4S*,5R*)-3-(3,4-difluoro-2-methoxyphenyl)-4,5-dimethyl-N-((1S,2R)-2-(1-methyl-1H-pyrazol-4-yl)cyclopropyl)-5-(trifluoromethyl)tetrahydrofuran-2-carboxamide] |
| 100 to 1000 |  | CN=S(C)(=O)c1cc(NC(=O)[C@H]2O[C@](C)(C(F)(F)F)[C@H](C)[C@@H]2c2ccc(F)c(F)c2OC)ccn1 (relative stereo) [Compound 527, rel-(2S,3R,4R,5S)-3-(3,4-difluoro-2-methoxyphenyl)-N-(2-(N,S-dimethylsulfonimidoyl)pyridin-4-yl)-4,5-dimethyl-5-(trifluoromethyl)tetrahydrofuran-2-carboxamide] |
| < 10 |  | CN=S(C)(=O)c1cc(NC(=O)[C@@H]2O[C@@](C)(C(F)(F)F)[C@@H](C)[C@H]2c2ccc(F)c(F)c2OC)ccn1 (relative stereo) [Compound 528, rel-(2R,3S,4S,5R)-3-(3,4-difluoro-2-methoxyphenyl)-N-(2-(N,S-dimethylsulfonimidoyl)pyridin-4-yl)-4,5-dimethyl-5-(trifluoromethyl)tetrahydrofuran-2-carboxamide] |
| 10 to 100 |  | Cc1nn(C(F)F)cc1NC(=O)[C@@H]1O[C@@](C)(C(F)(F)F)[C@@H](C)[C@H]1c1ccc(F)c(F)c1C(C)O (relative stereo) [Compound 680, rac-(2R*,3S*,4S*,5R*)-3-(3,4-difluoro-2-(1-hydroxyethyl)phenyl)-N-(1-(difluoromethyl)-3-methyl-1H-pyrazol-4-yl)-4,5-dimethyl-5-(trifluoromethyl)tetrahydrofuran-2-carboxamide] |
|  | 10 to 100 | COc1c([C@@H]2C[C@](C)(C(F)(F)F)O[C@H]2C(=O)Nc2ccnc([C@@H](O)[C@H](C)O)c2)ccc(F)c1F (relative stereo) [Compound 700, rel-(2R,3S,5R)-3-(3,4-difluoro-2-methoxyphenyl)-N-(2-((1R,2S)-1,2-dihydroxypropyl)pyridin-4-yl)-5-methyl-5-(trifluoromethyl)tetrahydrofuran-2-carboxamide] |
